Laboratory results taken from patent publication US20090093423A2, “NOVEL 2-SUBSTITUTED METHYL PENAM DERIVATIVES” (Orchid Chemicals and Pharmaceuticals Limited, priority 2006, published 2009).

Key:
[1] = system: E. coli MRO 10007; assay: MIC, Agar Dilution Method; assay type: cell-based; conditions: strain 10007 (uncharacterized-ESBL clinical strain); inhibitor 1 μg/mL
Protocol: (§1) The novel compounds were tested for the in vitro antibacterial activities by the Agar Dilution Method as specified in documents published by NCCLS, now CLSI, USA. (National Committee for Clinical Laboratory Standards (NCCLS). 2003. Approved standard M7-A6. NCCLS, Villanova, Pa.).
(§2) Tazo was also dissolved in same buffer to get a solution of, e.g., 1 mg/mL. Novel penam derivatives described herein were dissolved in water to get a solution of, e.g., 1 mg/mL.
(§3) The novel compounds and Tazo were also tested individually. The bacterial inoculum was prepared by picking 3 to 5 well-isolated bacterial colonies with the same morphological appearance from an 18-24 h old culture and adjusting the turbidity of the saline suspension to 0.5 McFarland Turbidity Standard equivalent to a bacterial population of 1.5×10^8 colony forming units (CFU) per mL of suspension. The suspension was diluted 1:10 in saline (i.e. 0.5 mL suspension+4.5 mL saline) to get a bacterial population of 1.5×10^7 CFU/mL as inoculum. […] The inoculated petridishes were incubated at 35° C. in an ambient atmosphere for 16-20 h.

[2] = system: E. coli MRO 10002; assay: MIC, Agar Dilution Method; assay type: cell-based; conditions: strain 10002 (uncharacterized-ESBL clinical strain); inhibitor 1 μg/mL
Protocol: as §1, §2, §3

[3] = system: K. pneumoniae 11006; assay: MIC, Agar Dilution Method; assay type: cell-based; conditions: strain 11006 (uncharacterized-ESBL clinical strain); inhibitor 1 μg/mL
Protocol: as §1, §2, §3

[4] = system: E. coli 10003; assay: MIC, Agar Dilution Method; assay type: cell-based; conditions: inhibitor 1 μg/mL
Protocol: as §1, §2, §3

[5] = system: K. pneumoniae 11010; assay: MIC, Agar Dilution Method; assay type: cell-based; conditions: inhibitor 1 μg/mL
Protocol: as §1, §2, §3

[6] = system: A. baumanii 14501; assay: MIC, Agar Dilution Method; assay type: cell-based; conditions: inhibitor 1 μg/mL
Protocol: as §1, §2, §3

[7] = system: K. pneumoniae MRO 11008; assay: MIC, Agar Dilution Method; assay type: cell-based; conditions: strain 11008 (uncharacterized-ESBL clinical strain); inhibitor 1 μg/mL
Protocol: as §1, §2, §3

[8] = system: E. coli ATCC 25922; assay: MIC, Agar Dilution Method; assay type: cell-based; conditions: inhibitor 1 μg/mL
Protocol: as §1, §2, §3

[9] = system: C. sedlakii 12303; assay: MIC, Agar Dilution Method; assay type: cell-based; conditions: inhibitor 1 μg/mL
Protocol: as §1, §2, §3

[10] = system: K. pneumoniae 11009; assay: MIC, Agar Dilution Method; assay type: cell-based; conditions: strain 11009 (uncharacterized-ESBL clinical strain); inhibitor 1 μg/mL
Protocol: as §1, §2, §3

[11] = system: K. pneumoniae ATCC 700603; assay: MIC, Agar Dilution Method; assay type: cell-based; conditions: for MIC of Piperacillin with different concentrations of Tazo or compound of Example 1: K. pneumoniae 700603, SHV-18
Protocol: as §1, §2, §3

[12] = system: P. aeruginosa 15019; assay: MIC, Agar Dilution Method; assay type: cell-based; conditions: inhibitor 1 μg/mL
Protocol: as §1, §2, §3

[13] = system: M. catarrhalis ATCC 43627; assay: MIC, Agar Dilution Method; assay type: cell-based; conditions: inhibitor 1 μg/mL
Protocol: as §1, §2, §3

[14] = system: P. aeruginosa 15020; assay: MIC, Agar Dilution Method; assay type: cell-based; conditions: inhibitor 1 μg/mL
Protocol: as §1, §2, §3

[15] = system: E. coli MRO 10006; assay: MIC, Agar Dilution Method; assay type: cell-based; conditions: strain 10006 (uncharacterized-ESBL clinical strain); inhibitor 1 μg/mL
Protocol: as §1, §2, §3

[16] = system: A. baumani MRO 14512; assay: MIC, Agar Dilution Method, resistant clinical isolate; assay type: cell-based; conditions: Pip + 4 μg/mL inhibitor
Protocol: as §1, §2, §3

[17] = system: A. baumani MRO 14514; assay: as above; assay type: cell-based; conditions: Pip + 4 μg/mL inhibitor
Protocol: as §1, §2, §3

[18] = system: E. coli MRO 10135; assay: as above; assay type: cell-based; conditions: Pip + 4 μg/mL inhibitor
Protocol: as §1, §2, §3

[19] = system: A. baumani MRO 14515; assay: as above; assay type: cell-based; conditions: Pip + 4 μg/mL inhibitor
Protocol: as §1, §2, §3

[20] = system: ESBLs types SHV-3 and SHV-4; conditions: Bryson and Brogden, 1994; cited from earlier work
[21] = Minimum bactericidal studies, broth macrodilution; assay type: cell-based
Protocol: Minimum bactericidal studies were performed by broth macrodilution technique as described by NCCLS.

[22] = system: E. coli BAA-198 (TEM-26); assay: MIC, Agar Dilution Method, ESBL producing ATCC isolate; assay type: cell-based
Protocol: as §1, §2, §3

[23] = system: E. coli BAA-202 (SHV-1); assay: as above; assay type: cell-based
Protocol: as §1, §2, §3

[24] = system: E. coli BAA-201 (TEM-3); assay: as above; assay type: cell-based
Protocol: as §1, §2, §3

[25] = system: P. mirabilis BAA-663 (TEM-89); assay: as above; assay type: cell-based
Protocol: as §1, §2, §3

[26] = system: K. pneumoniae 51503 (TEM-10 & -12); assay: as above; assay type: cell-based
Protocol: as §1, §2, §3

[27] = system: E. coli BAA-196 (TEM-10); assay: as above; assay type: cell-based
Protocol: as §1, §2, §3

[28] = system: E. coli BAA-199 (SHV-3); assay: as above; assay type: cell-based; conditions: E. coli BAA-199, SHV-3
Protocol: as §1, §2, §3

[29] = system: E. coli BAA-197 (TEM-12); assay: as above; assay type: cell-based
Protocol: as §1, §2, §3

[30] = system: E. coli BAA-200 (SHV-4); assay: as above; assay type: cell-based; conditions: E. coli BAA-200, SHV-4
Protocol: as §1, §2, §3

C[C@]1(Cn2ccnn2)[C@H](C(=O)O)N2C(=O)C[C@H]2S1(=O)=O [Tazo]
MIC of Piperacillin with Tazo or compounds described herein at 1 μg/mL [1]: 1 µg/mL | MIC of Piperacillin with Tazo or compounds described herein at 1 μg/mL [2]: 128 µg/mL | MIC of Piperacillin with Tazo or compounds described herein at 1 μg/mL [3]: 32 µg/mL | MIC of Piperacillin with Tazo or compounds described herein at 1 μg/mL [4]: 32 µg/mL | MIC of Piperacillin with Tazo or compounds described herein at 1 μg/mL [5]: 2 µg/mL | MIC of Piperacillin with Tazo or compounds described herein at 1 μg/mL [6]: 8 µg/mL | MIC of Piperacillin with Tazo or compounds described herein at 1 μg/mL [7]: >128 µg/mL | MIC of Piperacillin with Tazo or compounds described herein at 1 μg/mL [8]: 2 µg/mL | MIC of Piperacillin with Tazo or compounds described herein at 1 μg/mL [9]: 1 µg/mL | MIC of Piperacillin with Tazo or compounds described herein at 1 μg/mL [10]: 16 µg/mL | MIC of Piperacillin with different concentrations of Tazo or compound of Example 1 ([11]; inhibitor 1 μg/mL): 16 µg/mL | MIC of Piperacillin with different concentrations of Tazo or compound of Example 1 ([11]; inhibitor 2 μg/mL): 16 µg/mL | MIC of Piperacillin with different concentrations of Tazo or compound of Example 1 ([11]; inhibitor 4 μg/mL): 16 µg/mL | MIC of Piperacillin with Tazo or compounds described herein at 1 μg/mL ([11]; K. pneumoniae ATCC 700603, inhibitor 1 μg/mL): 16 µg/mL | MIC of Piperacillin with Tazo or compounds described herein at 1 μg/mL [12]: 32 µg/mL | MIC of Piperacillin with Tazo or compounds described herein at 1 μg/mL [13]: <0.25 µg/mL | MIC of Piperacillin with Tazo or compounds described herein at 1 μg/mL [14]: 64 µg/mL | MIC of Piperacillin with Tazo or compounds described herein at 1 μg/mL [15]: 2 µg/mL | MIC of Piperacillin in combination with 4 μg/mL inhibitor [16]: 64 µg/mL | MIC of Piperacillin in combination with 4 μg/mL inhibitor [17]: 64 µg/mL | MIC of Piperacillin in combination with 4 μg/mL inhibitor [18]: >128 µg/mL | MIC of Piperacillin in combination with 4 μg/mL inhibitor [19]: 128 µg/mL | activity against ESBLs types SHV-3 and SHV-4 [20]: inactive | Minimum bactericidal concentration study, Piperacillin in combination with inhibitor [21]: bacteriostatic | MIC of Piperacillin with different concentrations of Tazo or compound of Example 1 ([22]; inhibitor 1 μg/mL): 4 µg/mL | MIC of Piperacillin with different concentrations of Tazo or compound of Example 1 ([22]; inhibitor 2 μg/mL): 4 µg/mL | MIC of Piperacillin with different concentrations of Tazo or compound of Example 1 ([22]; inhibitor 4 μg/mL): 4 µg/mL | MIC of Piperacillin with different concentrations of Tazo or compound of Example 1 ([23]; inhibitor 1 μg/mL): >128 µg/mL | MIC of Piperacillin with different concentrations of Tazo or compound of Example 1 ([23]; inhibitor 2 μg/mL): >128 µg/mL | MIC of Piperacillin with different concentrations of Tazo or compound of Example 1 ([23]; inhibitor 4 μg/mL): >128 µg/mL | MIC of Piperacillin with different concentrations of Tazo or compound of Example 1 ([24]; inhibitor 1 μg/mL): 4 µg/mL | MIC of Piperacillin with different concentrations of Tazo or compound of Example 1 ([24]; inhibitor 2 μg/mL): 4 µg/mL | MIC of Piperacillin with different concentrations of Tazo or compound of Example 1 ([24]; inhibitor 4 μg/mL): 2 µg/mL | MIC of Piperacillin with different concentrations of Tazo or compound of Example 1 ([25]; inhibitor 1 μg/mL): 8 µg/mL | MIC of Piperacillin with different concentrations of Tazo or compound of Example 1 ([25]; inhibitor 2 μg/mL): 8 µg/mL | MIC of Piperacillin with different concentrations of Tazo or compound of Example 1 ([25]; inhibitor 4 μg/mL): 4 µg/mL | MIC of Piperacillin with different concentrations of Tazo or compound of Example 1 ([26]; inhibitor 1 μg/mL): >128 µg/mL | MIC of Piperacillin with different concentrations of Tazo or compound of Example 1 ([26]; inhibitor 2 μg/mL): >128 µg/mL | MIC of Piperacillin with different concentrations of Tazo or compound of Example 1 ([26]; inhibitor 4 μg/mL): 16 µg/mL | MIC of Piperacillin with different concentrations of Tazo or compound of Example 1 ([27]; inhibitor 1 μg/mL): 64 µg/mL | MIC of Piperacillin with different concentrations of Tazo or compound of Example 1 ([27]; inhibitor 2 μg/mL): 16 µg/mL | MIC of Piperacillin with different concentrations of Tazo or compound of Example 1 ([27]; inhibitor 4 μg/mL): 4 µg/mL | MIC of Piperacillin with different concentrations of Tazo or compound of Example 1 ([28]; inhibitor 1 μg/mL): >128 µg/mL | MIC of Piperacillin with different concentrations of Tazo or compound of Example 1 ([28]; inhibitor 2 μg/mL): >128 µg/mL | MIC of Piperacillin with different concentrations of Tazo or compound of Example 1 ([28]; inhibitor 4 μg/mL): >128 µg/mL | MIC of Piperacillin with different concentrations of Tazo or compound of Example 1 ([29]; inhibitor 1 μg/mL): 64 µg/mL | MIC of Piperacillin with different concentrations of Tazo or compound of Example 1 ([29]; inhibitor 2 μg/mL): 8 µg/mL | MIC of Piperacillin with different concentrations of Tazo or compound of Example 1 ([29]; inhibitor 4 μg/mL): 4 µg/mL | MIC of Piperacillin with different concentrations of Tazo or compound of Example 1 ([30]; inhibitor 1 μg/mL): >128 µg/mL | MIC of Piperacillin with different concentrations of Tazo or compound of Example 1 ([30]; inhibitor 2 μg/mL): >128 µg/mL | MIC of Piperacillin with different concentrations of Tazo or compound of Example 1 ([30]; inhibitor 4 μg/mL): 4 µg/mL
